These results are taken from the supplement of paper PMC6965134.

This series can be described thus: TIMS collisional cross section (CCS, N2) of the lipid ion; higher = larger ion cross section. The settings on record: ionization mode: positive, one isomer drawn.

± gives the standard deviation of the averaged measurements.

Turning to `CCCCC/C=C\C/C=C\C/C=C\C/C=C\CCCC(=O)O[C@H](COC(=O)CCCCCCC/C=C\C/C=C\CCCCC)COP(=O)([O-])OCC[N+](C)(C)C` [PC 18:2_20:4] (ion (formula + adduct): [C46H80NO8P+H] 1+), the “TIMS collisional cross section” value (sample type: Liver) turned out to be 290.1 Å².

Consider `CCCCC/C=C\C/C=C\CCCCCCCCCCCC(=O)O[C@@H](CO)COC(=O)CCCCCCC/C=C\C/C=C\CCCCC` [DG 18:2_22:2_0:0] (ion (formula + adduct): [C43H76O5+NH4] 1+), for which the “TIMS collisional cross section” value (sample type: Liver) is on record as 272.5 Å².

For the molecule `CC/C=C\C/C=C\C/C=C\C/C=C\C/C=C\CCCC(=O)OC[C@H](COP(=O)(O)O[C@H]1C(O)C(O)C(O)[C@@H](O)C1O)OC(=O)CCCCCCCCCCCCCCCCC` (some centres undefined) [PI 20:5_18:0@] (ion (formula + adduct): [C47H81O13P+H] 1+), the “TIMS collisional cross section” value (sample type: plasma) was 308 Å².

Take `CCCCCCCCCCCCC/C=C/[C@@H](O)[C@H](CO)NC(=O)CCCCCCCCCCCCCCCCCCCCC` [Cer d18:1_22:0@] (ion (formula + adduct): [C40H79NO3+H] 1+): the “TIMS collisional cross section” value is on record as 274.3 Å² (sample type: HeLa) and 274.9 Å² (sample type: Liver).

Turning to `CCCCC/C=C\C/C=C\C/C=C\C/C=C\CCCC(=O)O[C@H](COC(=O)CCCCCCCCCCCCCCCCCC)COP(=O)(O)OCCN` [PE 19:0_20:4@] (ion (formula + adduct): [C44H80NO8P+H] 1+), the “TIMS collisional cross section” value (sample type: HeLa) is 287.3 Å².

With `CCCCCCCCCCCCCCCC(=O)OC[C@@H](O)COP(=O)(O)OCCN` [LPE 16:0] (ion (formula + adduct): [C21H44NO7P+H] 1+), the “TIMS collisional cross section” value is, setting by setting: (sample type: HeLa) 214.5 Å²; (sample type: Liver) 215.9 ± 2.1 Å²; (sample type: plasma) 215.7 ± 2.5 Å².

On to `CC/C=C\C/C=C\C/C=C\C/C=C\C/C=C\CCCC(=O)OC[C@@H](COC(=O)CCCCCCCCCCCCCCC)OC(=O)CCCCCCCCCCCCCCC` [TG 16:0_16:0_20:5] (ion (formula + adduct): [C55H96O6+Na] 1+), for which the “TIMS collisional cross section” value (sample type: Liver) turned out to be 314.5 Å².

For `CCCCCCCCCCCCCCC(=O)OC[C@H](COP(=O)(O)OC[C@H](N)C(=O)O)OC(=O)CCCCCCCCCCCCC` [PS 15:0_14:0] (ion (formula + adduct): [C35H68NO10P+Na] 1+), for the setting “sample type: Liver”, the “TIMS collisional cross section” value was determined as 270.3 Å².

Turning to `CCCCCCC/C=C\CCCCCCCC(=O)O[C@@H](COC(=O)CCCCCCC/C=C\CCCCCCCC)COC(=O)CCCCCCCCCCCCCCCC` [TG 17:0_17:1_18:1] (ion (formula + adduct): [C55H102O6+NH4] 1+), the “TIMS collisional cross section” value is, setting by setting: (sample type: HeLa) 322.1 Å²; (sample type: Liver) 322.4 Å²; (sample type: plasma) 322.7 Å².

With `CCCCCCCCCCCCCCCC(=O)O[C@H](CO)COP(=O)(O)OCCN` [LPE 16:0] (ion (formula + adduct): [C21H44NO7P+H] 1+), the “TIMS collisional cross section” value (sample type: Liver) worked out at 214.5 Å².

In the case of `CCCCC/C=C\C/C=C\CCCCCCCC(=O)O[C@H](COC(=O)CCCCCCC/C=C\CCCCCCCC)COC(=O)CCCCCCCCC/C=C\CCCCCCCC` [TG 18:1_18:2_20:1] (ion (formula + adduct): [C59H106O6+NH4] 1+), the “TIMS collisional cross section” value is, setting by setting: (sample type: HeLa) 331.8 Å²; (sample type: plasma) 330.8 Å².

As for `CCCCCCCCCCC/C=C\CCCCC(=O)OC[C@@H](O)COP(=O)([O-])OCC[N+](C)(C)C` [LPC 18:1_0:0] (ion (formula + adduct): [C26H52NO7P+H] 1+), the “TIMS collisional cross section” value reads like this: (sample type: HeLa) 233.6 Å²; (sample type: Liver) 232.95 ± 1.1 Å²; (sample type: plasma) 232.8 ± 0.42 Å².

Turning to `CCCC/C=C\CCCCCCCC(=O)OC[C@H](COC(=O)CCCCCCC/C=C\CCCCCC)OC(=O)CCCCCCCCCCCCCCC` [TG 14:1_16:0_16:1] (ion (formula + adduct): [C49H90O6+NH4] 1+), the “TIMS collisional cross section” value (sample type: HeLa) stood at 303.9 ± 0.85 Å², the “TIMS collisional cross section” value (sample type: Liver) is given as 302.9 Å² and the “TIMS collisional cross section” value (sample type: plasma) is on record as 303.9 ± 0.28 Å².

For the molecule `CCCCCCCC/C=C\CCCCCCCCCCCCCCCC(=O)N[C@@H](CO)[C@H](O)/C=C/CCCCCCCCCCCCC` [Cer d18:1_26:1@] (ion (formula + adduct): [C44H85NO3+H] 1+), the “TIMS collisional cross section” value runs as follows: (sample type: HeLa) 284.9 Å²; (sample type: Liver) 289.4 Å².

For the molecule `CCCCC/C=C\C/C=C\C/C=C\CCCCC(=O)O[C@H](COC(=O)CCCCCCCCCCCCCCCCC)COP(=O)(O)OCCN` [PE 18:0_18:3@] (ion (formula + adduct): [C41H76NO8P+H] 1+), the “TIMS collisional cross section” value (sample type: Liver) came to 278.7 Å².

In the case of `CCCCCCCCCCCCCC/C=C\OC[C@H](COP(=O)([O-])OCC[N+](C)(C)C)OC(=O)CCCCCCCCCCCCCCC` [PC P- 16:0_16:0] (ion (formula + adduct): [C40H80NO7P+H] 1+), the “TIMS collisional cross section” value (sample type: HeLa) is reported as 284.4 Å² and the “TIMS collisional cross section” value (sample type: plasma) is 284.4 Å².

Consider `CCCCCCCCCCCCCCCCC(=O)OC[C@@H](COC(=O)CCCCCCCCCCC)OC(=O)CCCCCCCCCCCCCC` [TG 12:0_15:0_17:0] (ion (formula + adduct): [C47H90O6+NH4] 1+), for which the “TIMS collisional cross section” value (sample type: plasma) was found to be 302.1 Å².

Take `CCCCC/C=C\C/C=C\CCCCCCCC(=O)OC[C@H](COC(=O)CCCCCCCCC/C=C\CCCCCCCC)OC(=O)CCCCCCC/C=C\CCCCCCCCC` [TG 18:2_19:1_20:1] (ion (formula + adduct): [C60H108O6+NH4] 1+): the “TIMS collisional cross section” value (sample type: Liver) stood at 332.8 Å².

Consider `CCCCC/C=C\C/C=C\CCCCCCCC(=O)O[C@H](COCCCCCCCCCCCCCCCC)COP(=O)([O-])OCC[N+](C)(C)C` [PC O- 16:0@_18:2] (ion (formula + adduct): [C42H82NO7P+H] 1+), for which, under “sample type: plasma”, the “TIMS collisional cross section” value is listed as 287.3 Å².

Take `CCCCC/C=C\C/C=C\C/C=C\C/C=C\CCCC(=O)O[C@H](COC(=O)CCCCCCCCCCCCCCCCC)COP(=O)(O)OCCN` [PE 18:0_20:4] (ion (formula + adduct): [C43H78NO8P+H] 1+): the “TIMS collisional cross section” value is recorded as 284.15 ± 0.49 Å² (sample type: Liver) and 283.5 Å² (sample type: plasma).

As for `CC/C=C\C/C=C\C/C=C\C/C=C\C/C=C\C/C=C\CCC(=O)OC[C@@H](O)COP(=O)([O-])OCC[N+](C)(C)C` [LPC 22:6_0:0] (ion (formula + adduct): [C30H50NO7P+H] 1+), the “TIMS collisional cross section” value (sample type: plasma) amounted to 233.1 Å².

Turning to `CCCCC/C=C\C/C=C\CCCCCCCC(=O)O[C@H](COC(=O)CCCCCCC/C=C\CCCCCCCC)COC(=O)CCCCCCCCCCCCCCCCCCCC` [TG 18:1_18:2_21:0] (ion (formula + adduct): [C60H110O6+NH4] 1+), where the note is “sample type: Liver”, the “TIMS collisional cross section” value amounted to 334.4 Å².

In the case of `CC/C=C\C/C=C\C/C=C\C/C=C\C/C=C\C/C=C\CCC(=O)OC[C@@H](COC(=O)CCCCCCCCCCCCC)OC(=O)CCCCCCCCCCCCCCC` [TG 14:0_16:0_22:6] (ion (formula + adduct): [C55H94O6+NH4] 1+), the “TIMS collisional cross section” value (sample type: HeLa) turned out to be 317.6 Å².

For the molecule `CCCCC/C=C\C/C=C\CCCCCCCCCC(=O)O[C@@H](CO)COC(=O)CCCCCCC/C=C\CCCCCCCC` [DG 18:1_20:2_0:0] (ion (formula + adduct): [C41H74O5+NH4] 1+), the “TIMS collisional cross section” value (sample type: plasma) was found to be 268.2 Å².

Take `CCCCC/C=C\C/C=C\C/C=C\CCCCCCC(=O)OC[C@@H](O)COP(=O)([O-])OCC[N+](C)(C)C` [LPC 20:3] (ion (formula + adduct): [C28H52NO7P+H] 1+): the “TIMS collisional cross section” value runs as follows: (sample type: HeLa) 234.05 ± 2.8 Å²; (sample type: Liver) 236.2 Å²; (sample type: plasma) 232.57 ± 2.1 Å².

For the molecule `CCCCC/C=C\C/C=C\C/C=C\C/C=C\CCCCCC(=O)O[C@@H](CO)COC(=O)CCCCCCC/C=C\CCCCCCCC` [DG 18:1_22:4_0:0] (ion (formula + adduct): [C43H74O5+NH4] 1+), the “TIMS collisional cross section” value (sample type: plasma) was 273 Å².

On to `CC/C=C\C/C=C\C/C=C\CCCCCCCC(=O)OC[C@@H](COC(=O)CCCCCCCCCCCCCCC)OC(=O)CCCCCCC/C=C\C/C=C\CCCCC` [TG 16:0_18:2_18:3] (ion (formula + adduct): [C55H96O6+NH4] 1+), for which the “TIMS collisional cross section” value (sample type: plasma) is recorded as 315.8 Å².

In the case of `CC/C=C\C/C=C\C/C=C\C/C=C\C/C=C\C/C=C\CCC(=O)O[C@H](COCCCCCCCCCCCCCCCCCCCC)COP(=O)([O-])OCC[N+](C)(C)C` [PC O- 20:0@_22:6] (ion (formula + adduct): [C50H90NO7P+H] 1+), the “TIMS collisional cross section” value reads like this: (sample type: HeLa) 305.7 Å²; (sample type: plasma) 304.9 Å².

In the case of `CC/C=C\C/C=C\C/C=C\C/C=C\C/C=C\C/C=C\CCC(=O)OC[C@H](COP(=O)(O)OCCN)OC(=O)CC/C=C\C/C=C\C/C=C\C/C=C\C/C=C\C/C=C\CC` [PE 22:6_22:6] (ion (formula + adduct): [C49H74NO8P+H] 1+), the “TIMS collisional cross section” value (sample type: HeLa) turned out to be 286.7 Å².

As for `CC/C=C\C/C=C\C/C=C\C/C=C\C/C=C\C/C=C\CCC(=O)O[C@H](CO/C=C\CCCCCCCCCCCCCCCCCC)COP(=O)([O-])OCC[N+](C)(C)C` [PC P- 20:0@_22:6] (ion (formula + adduct): [C50H88NO7P+H] 1+), the “TIMS collisional cross section” value (sample type: HeLa) turned out to be 304.8 Å².

Take `CCCCCCCCCCCCCCCCCCCCC(=O)OC[C@@H](COC(=O)CCCCCCCCCCCCCCC)OC(=O)CCCCCCCCCCCCCCCCCCC` [TG 16:0_20:0_21:0] (ion (formula + adduct): [C60H116O6+NH4] 1+): the “TIMS collisional cross section” value (sample type: HeLa) amounted to 339.7 Å².

For the molecule `CCCCC/C=C\C/C=C\C/C=C\CCCCCCC(=O)OC[C@@H](COC(=O)CCCCCCC/C=C\CCCCCCCC)OC(=O)CCCCCCC/C=C\CCCCCCCC` [TG 18:1_18:1_20:3] (ion (formula + adduct): [C59H104O6+NH4] 1+), the “TIMS collisional cross section” value (sample type: Liver) worked out at 330.2 Å².

`CCCCC/C=C\CCCCCCCC(=O)OC[C@@H](COC(=O)CCCCCCCCCCC)OC(=O)CCCCCCCCCCC` [TG 12:0_12:0_15:1] (ion (formula + adduct): [C42H78O6+NH4] 1+): the “TIMS collisional cross section” value (sample type: Liver) was determined as 280.4 Å².
